Measurements reported in US6358885B1, “Substituted phenylheterocyclic herbicides” (Mississippi State University, priority 1992, dated 2002).

How the values were obtained:
cotton [1] = assay: Test C preemergence/postemergence greenhouse plant response rating 0 to 100; assay type: in vivo, Gossypium hirsutum; conditions: for Plant response rating, Cotton: 62 g/ha, 0 to 100 scale
How it was run: (§1)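 Compounds in non-phytotoxic solvent applied preemergence to sandy loam one day after planting, postemergence at the 1–4 leaf stage, or to ~2.5 cm floodwater over silt loam.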

corn = assay: Test B preemergence/postemergence greenhouse plant response rating 0 to 10; assay type: in vivo, Zea mays; conditions: 0 to 10 scale
How it was run: (§2)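 Test chemicals were sprayed onto freshly planted seed and, concurrently, onto young plants between the one and four leaf stage. After a twelve- to sixteen-day greenhouse period, each species was visually compared with untreated controls.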

wheat [2] = assay: as above; assay type: in vivo, Triticum aestivum; conditions: 0 to 10 scale
How it was run: as §2

duck salad = assay: Test C flood test plant response rating 0 to 100; assay type: in vivo, Heteranthera limosa
How it was run: as §1

sugar beet = assay: Test B preemergence/postemergence greenhouse plant response rating 0 to 10; assay type: in vivo, Beta vulgaris; conditions: 0 to 10 scale
How it was run: as §2

wild buckwheat = assay: Test C preemergence/postemergence greenhouse plant response rating 0 to 100; assay type: in vivo, Polygonum convolvulus
How it was run: as §1

barnyardgrass = assay: Test C flood test plant response rating 0 to 100; assay type: in vivo, Echinochloa crus-galli
How it was run: as §1

pigweed = assay: Test C preemergence/postemergence greenhouse plant response rating 0 to 100; assay type: in vivo, Amaranthusretroflexus; conditions: for Plant response rating Pigweed: 62 g/ha, 0 to 100 scale
How it was run: as §1

sorghum = assay: Test B preemergence/postemergence greenhouse plant response rating 0 to 10; assay type: in vivo, Sorghum bicolor; conditions: 0 to 10 scale
How it was run: as §2

purple nutsedge = assay: as above; assay type: in vivo, Cyperus rotundus; conditions: 0 to 10 scale
How it was run: as §2

cotton [3] = assay: as above; assay type: in vivo, Gossypium hirsutum; conditions: 0 to 10 scale
How it was run: as §2

velvetleaf = assay: Test C preemergence/postemergence greenhouse plant response rating 0 to 100; assay type: in vivo, Abutilon theophrasti
How it was run: as §1

lambsquarters = assay: as above; assay type: in vivo, Chenopodium album; conditions: for Plant response rating Lambsquarters: 62 g/ha, 0 to 100 scale
How it was run: as §1

blackgrass = assay: Test B preemergence/postemergence greenhouse plant response rating 0 to 10; assay type: in vivo, Alopecurus myosuroides; conditions: 0 to 10 scale
How it was run: as §2

crabgrass = assay: as above; assay type: in vivo, Digitaria spp.; conditions: 0 to 10 scale
How it was run: as §2

wild oat = assay: as above; assay type: in vivo, Avena fatua; conditions: 0 to 10 scale
How it was run: as §2

rice = assay: as above; assay type: in vivo, Oryza sativa; conditions: 0 to 10 scale
How it was run: as §2

wheat [4] = assay: Test C preemergence/postemergence greenhouse plant response rating 0 to 100; assay type: in vivo, Triticum aestivum
How it was run: as §1

[5] = POSTEMERGENCE section, flood test, Rate 1 g/ha
[6] = POSTEMERGENCE section, flood test, Rate 4 g/ha
[7] = Rate 16 g/ha, under POSTEMERGENCE head (flood test species)
[8] = flood test species listed under POSTEMERGENCE, 62 g/ha, 0 to 100 scale
[9] = POSTEMERGENCE, 62 g/ha, 0 to 100 scale

Compound: CCN1C(=O)COc2cc(F)c(-c3nn4c(c3Cl)CCCC4)cc21 [Compound 54]
- Plant response rating, Cotton (cotton [1]; POSTEMERGENCE): 100
- Plant response rating (0 to 100), Cotton (cotton [1]; POSTEMERGENCE, Rate 1 g/ha): 70
- Plant response rating (0 to 100), Cotton (cotton [1]; POSTEMERGENCE, Rate 4 g/ha): 95
- Plant response rating, Cotton (cotton [1]; PREEMERGENCE): 40
- Plant response rating (0 to 100), Cotton (cotton [1]; PREEMERGENCE, Rate 1 g/ha): 0
- Plant response rating (0 to 100), Cotton (cotton [1]; PREEMERGENCE, Rate 4 g/ha): 0
- Plant response rating (0 to 100), Cotton (cotton [1]; Rate 16 g/ha, POSTEMERGENCE): 100
- Plant response rating (0 to 100), Cotton (cotton [1]; Rate 16 g/ha, PREEMERGENCE): 0
- Plant response rating, Corn (corn; POSTEMERGENCE, Rate 10 g/ha): 3
- Plant response rating, Corn (corn; POSTEMERGENCE, Rate 50 g/ha): 3
- Plant response rating, Corn (corn; PREEMERGENCE, Rate 50 g/ha): 0
- Plant response rating, Wheat (wheat [2]; POSTEMERGENCE, Rate 10 g/ha): 6
- Plant response rating, Wheat (wheat [2]; POSTEMERGENCE, Rate 50 g/ha): 6
- Plant response rating, Wheat (wheat [2]; PREEMERGENCE, Rate 50 g/ha): 3
- Plant response rating (0 to 100), Duck salad (duck salad; [5]): 0
- Plant response rating (0 to 100), Duck salad (duck salad; [6]): 0
- Plant response rating (0 to 100), Duck salad (duck salad; [7]): 35
- Plant response rating Duck salad (duck salad; [8]): 100
- Plant response rating, Sugar beet (sugar beet; POSTEMERGENCE, Rate 10 g/ha): 10
- Plant response rating, Sugar beet (sugar beet; POSTEMERGENCE, Rate 50 g/ha): 10
- Plant response rating, Sugar beet (sugar beet; PREEMERGENCE, Rate 50 g/ha): 9
- Plant response rating, Wild buckwheat (wild buckwheat; [9]): 100
- Plant response rating (0 to 100), Wild buckwheat (wild buckwheat; POSTEMERGENCE, Rate 1 g/ha): 100
- Plant response rating (0 to 100), Wild buckwheat (wild buckwheat; POSTEMERGENCE, Rate 4 g/ha): 100
- Plant response rating (0 to 100), Wild buckwheat (wild buckwheat; PREEMERGENCE, Rate 1 g/ha): 0
- Plant response rating (0 to 100), Wild buckwheat (wild buckwheat; PREEMERGENCE, Rate 4 g/ha): 0
- Plant response rating (0 to 100), Wild buckwheat (wild buckwheat; Rate 16 g/ha, POSTEMERGENCE): 100
- Plant response rating (0 to 100), Wild buckwheat (wild buckwheat; Rate 16 g/ha, PREEMERGENCE): 100
- Plant response rating (0 to 100), Barnyardgrass 2 (barnyardgrass; [5]): 0
- Plant response rating (0 to 100), Barnyardgrass 2 (barnyardgrass; [6]): 10
- Plant response rating (0 to 100), Barnyardgrass 2 (barnyardgrass; [7]): 95
- Plant response rating Barnyardgrass 2 (barnyardgrass; [8]): 100
- Plant response rating Pigweed (pigweed; POSTEMERGENCE): 100
- Plant response rating (0 to 100), Pigweed (pigweed; POSTEMERGENCE, Rate 1 g/ha): 95
- Plant response rating (0 to 100), Pigweed (pigweed; POSTEMERGENCE, Rate 4 g/ha): 100
- Plant response rating Pigweed (pigweed; PREEMERGENCE): 100
- Plant response rating (0 to 100), Pigweed (pigweed; PREEMERGENCE, Rate 1 g/ha): 0
- Plant response rating (0 to 100), Pigweed (pigweed; PREEMERGENCE, Rate 4 g/ha): 90
- Plant response rating (0 to 100), Pigweed (pigweed; Rate 16 g/ha, POSTEMERGENCE): 100
- Plant response rating (0 to 100), Pigweed (pigweed; Rate 16 g/ha, PREEMERGENCE): 100
- Plant response rating, Sorghum (sorghum; POSTEMERGENCE, Rate 10 g/ha): 3
- Plant response rating, Sorghum (sorghum; POSTEMERGENCE, Rate 50 g/ha): 3
- Plant response rating, Sorghum (sorghum; PREEMERGENCE, Rate 50 g/ha): 1
- Plant response rating, Nutsedge (purple nutsedge; POSTEMERGENCE, Rate 10 g/ha): 2
- Plant response rating, Nutsedge (purple nutsedge; POSTEMERGENCE, Rate 50 g/ha): 2
- Plant response rating, Nutsedge (purple nutsedge; PREEMERGENCE, Rate 50 g/ha): 0
- Plant response rating, Cotton (cotton [3]; POSTEMERGENCE, Rate 10 g/ha): 10
- Plant response rating, Cotton (cotton [3]; POSTEMERGENCE, Rate 50 g/ha): 10
- Plant response rating, Cotton (cotton [3]; PREEMERGENCE, Rate 10 g/ha): 1
- Plant response rating, Cotton (cotton [3]; PREEMERGENCE, Rate 50 g/ha): 2
- Plant response rating, Velvetleaf (velvetleaf; [9]): 100
- Plant response rating (0 to 100), Velvetleaf (velvetleaf; POSTEMERGENCE, Rate 1 g/ha): 70
- Plant response rating (0 to 100), Velvetleaf (velvetleaf; POSTEMERGENCE, Rate 4 g/ha): 100
- Plant response rating (0 to 100), Velvetleaf (velvetleaf; PREEMERGENCE, Rate 1 g/ha): 0
- Plant response rating (0 to 100), Velvetleaf (velvetleaf; PREEMERGENCE, Rate 4 g/ha): 0
- Plant response rating (0 to 100), Velvetleaf (velvetleaf; Rate 16 g/ha, POSTEMERGENCE): 100
- Plant response rating (0 to 100), Velvetleaf (velvetleaf; Rate 16 g/ha, PREEMERGENCE): 80
- Plant response rating Lambsquarters (lambsquarters; POSTEMERGENCE): 100
- Plant response rating (0 to 100), Lambsquarters (lambsquarters; POSTEMERGENCE, Rate 1 g/ha): 10
- Plant response rating (0 to 100), Lambsquarters (lambsquarters; POSTEMERGENCE, Rate 4 g/ha): 50
- Plant response rating Lambsquarters (lambsquarters; PREEMERGENCE): 100
- Plant response rating (0 to 100), Lambsquarters (lambsquarters; PREEMERGENCE, Rate 1 g/ha): 0
- Plant response rating (0 to 100), Lambsquarters (lambsquarters; PREEMERGENCE, Rate 4 g/ha): 60
- Plant response rating (0 to 100), Lambsquarters (lambsquarters; Rate 16 g/ha, POSTEMERGENCE): 75
- Plant response rating (0 to 100), Lambsquarters (lambsquarters; Rate 16 g/ha, PREEMERGENCE): 100
- Plant response rating, Blackgrass (blackgrass; POSTEMERGENCE, Rate 10 g/ha): 5
- Plant response rating, Blackgrass (blackgrass; POSTEMERGENCE, Rate 50 g/ha): 6
- Plant response rating, Blackgrass (blackgrass; PREEMERGENCE, Rate 10 g/ha): 3
- Plant response rating, Blackgrass (blackgrass; PREEMERGENCE, Rate 50 g/ha): 3
- Plant response rating, Crabgrass (crabgrass; POSTEMERGENCE, Rate 10 g/ha): 2
- Plant response rating, Crabgrass (crabgrass; POSTEMERGENCE, Rate 50 g/ha): 3
- Plant response rating, Crabgrass (crabgrass; PREEMERGENCE, Rate 10 g/ha): 0
- Plant response rating, Crabgrass (crabgrass; PREEMERGENCE, Rate 50 g/ha): 0
- Plant response rating, Wild oat (wild oat; POSTEMERGENCE, Rate 10 g/ha): 4
- Plant response rating, Wild oat (wild oat; POSTEMERGENCE, Rate 50 g/ha): 7
- Plant response rating, Wild oat (wild oat; PREEMERGENCE, Rate 50 g/ha): 2
- Plant response rating, Rice (rice; POSTEMERGENCE, Rate 10 g/ha): 3
- Plant response rating, Rice (rice; POSTEMERGENCE, Rate 50 g/ha): 4
- Plant response rating, Rice (rice; PREEMERGENCE, Rate 50 g/ha): 0
- Plant response rating, Wheat (wheat [4]; [9]): 60
- Plant response rating (0 to 100), Wheat (wheat [4]; POSTEMERGENCE, Rate 1 g/ha): 20
- Plant response rating (0 to 100), Wheat (wheat [4]; POSTEMERGENCE, Rate 4 g/ha): 40
- Plant response rating (0 to 100), Wheat (wheat [4]; PREEMERGENCE, Rate 1 g/ha): 0
- Plant response rating (0 to 100), Wheat (wheat [4]; PREEMERGENCE, Rate 4 g/ha): 0
- Plant response rating (0 to 100), Wheat (wheat [4]; Rate 16 g/ha, POSTEMERGENCE): 60
- Plant response rating (0 to 100), Wheat (wheat [4]; Rate 16 g/ha, PREEMERGENCE): 10
